In patent publication US7297700B2, “Bicycloheteroaryl compounds as P2X7 modulators and uses thereof” (Renovis, Inc., priority 2005, dated 2007) one finds inhibition and IL-1β % inhibition data, which are given here for 46 molecules.

The inhibition is how much of the control response was suppressed.

Each structure is given as a SMILES string.

One assay concerns IL-1β release from THP-1 cells. As to the kind of experiment: IL-1β Release Assay (Alternate Method), THP-1 cells. Type of assay: cell-based, human. As to conditions: Homo sapiens; at 0.3 μM; THP-1 cells, BzATP-stimulated; read-out: IL-1β % inhibition. As to the method:
THP-1 cells (ATCC Cat #285-IF-100) are plated in 96 well plates at a concentration of 200,000 cells per well and allowed to differentiate in RPMI-1640 media (ATCC Cat #30-2001) containing 10% FBS, 100 IU/mL penicillin, 100 ug/mL streptomycin, 100 ng/mL LPS and 100 ng/mL IFN-γ for 16 hours. Following differentiation, the cells are treated for an additional 2 hours in RPMI-1640 media containing 100 IU/mL penicillin, 100 ug/mL streptomycin and fresh LPS at 100 ng/mL. The cells are then pretreated for 30 minutes with the compound of interest at the appropriate concentration in RPMI media containing 100 IU/mL penicillin, 100 ug/mL streptomycin. Following the pretreatment 2′, 3′-O-(4-benzoylbenzoyl)-adenosine 5′-triphosphate (Sigma Aldrich Cat#B6396) is added to a final concentration of 250 uM and the cells incubated for an additional 45 minutes. 30 uL of cell supernatant is then collected and IL-1β levels determined via ELISA (R&D systems Cat. #HSLB50) according to manufacturer's recommendations using the Tecan Safire plate reader. Background adjusted IL-1β levels of drug treated and non-treated cells are used to calculate the percent inhibition.
On to `O=C(CC12CC3CC(CC(C3)C1)C2)Nc1cccc2c1C=CN(Cc1ccc(F)cc1)C2` [Compound 636], for which the inhibition at 0.3 µM lay in the range of 0 to 25%.

Still in this assay, the particulars now being: Homo sapiens; at 0.3 μM; THP-1 cells; read-out: IL-1β % inhibition.
Regarding `O=C(CC12CC3CC(CC(C3)C1)C2)Nc1ncnc2c1CCN(C(=O)c1ccccc1)C2` [Compound 220], the inhibition at 0.3 µM was more than 75%. The same measure, in the same setting: the same measure for `O=C(CC12CC3CC(CC(C3)C1)C2)Nc1ccnc2c1CCN(Cc1ccccc1)C2` [Compound 342, 2-Adamantan-1-yl-N-(7-benzyl-5,6,7,8-tetrahydro-[1,7]naphthyridin-4-yl)-acetamide]: 0 to 25%; for `O=C(c1ccccc1)N1CCc2c(ncnc2NC(=O)C23CC4CC(CC(C4)C2)C3)C1` [Compound 394]: 25 to 50%.

The same assay, now with this note: at 0.3 μM; THP-1 cells.
Regarding `O=C(CC12CC3CC(CC(C3)C1)C2)Nc1ncnc2c1CCN(Cc1ccc3c(c1)OCCCO3)C2` [Compound 333], the IL-1β % inhibition result was “+++ (compound exhibited 50-75% inhibition at 0.3 μM)”. On the same count and under the same terms, the same measure for `CCCS(=O)(=O)N1CCc2c(ncnc2NC(=O)CC23CC4CC(CC(C4)C2)C3)C1` [Compound 147]: “++++ (compound exhibited 75% or greater inhibition at 0.3 μM)”; for `O=C(CC12CC3CC(CC(C3)C1)C2)Nc1ncnc2c1CCN(S(=O)(=O)c1ccc(Cl)cc1F)C2` [Compound 202]: “++ (compound exhibited 25-50% inhibition at 0.3 μM)”. Same read-out and setting: as for `O=C(CC12CC3CC(CC(C3)C1)C2)Nc1ncnc2c1CCN(S(=O)(=O)c1cc(C(F)(F)F)ccc1Cl)C2` [Compound 181], the entry is “++ (compound exhibited 25-50% inhibition at 0.3 μM)”. For `O=C(CC12CC3CC(CC(C3)C1)C2)Nc1ncnc2c1CCN(Cc1cccc(F)c1)C2` [Compound 33], the IL-1β % inhibition entry was “+ (compound exhibited 0-25% inhibition at 0.3 μM)”. Still for that read-out and setting: the same measure for `COc1cc(OC)cc(C(=O)N2CCc3c(ncnc3NC(=O)CC34CC5CC(CC(C5)C3)C4)C2)c1` [Compound 246]: “++ (compound exhibited 25-50% inhibition at 0.3 μM)”. On the same count and under the same terms, as for `O=C(CC12CC3CC(CC(C3)C1)C2)Nc1ncnc2c1CCN(Cc1cccc(OCCO)c1)C2` [Compound 101], the entry is “++ (compound exhibited 25-50% inhibition at 0.3 μM)”; as for `COc1cccc(CN2CCc3c(ncnc3NC(=O)CC34CC5CC(CC(C5)C3)C4)C2)c1` [Compound 35], “+++ (compound exhibited 50-75% inhibition at 0.3 μM)”. Regarding `O=C(CC12CC3CC(CC(C3)C1)C2)Nc1ncnc2c1CCN(C(=O)c1ccccc1C(F)(F)F)C2` [Compound 270], the IL-1β % inhibition entry was “+ (compound exhibited 0-25% inhibition at 0.3 μM)”.

As for `O=C(c1ccc(OC(F)(F)F)cc1)N1CCc2c(ncnc2NC(=O)C23CC4CC(CC(C4)C2)C3)C1` [Compound 401], the IL-1β % inhibition entry is “+ (compound exhibited 0-25% inhibition at 0.3 μM)”. On the same count and under the same terms, the same measure for `O=C(CC12CC3CC(CC(C3)C1)C2)Nc1ncnc2c1CCN(CC1CCCC1)C2` [Compound 121]: “+ (compound exhibited 0-25% inhibition at 0.3 μM)”. Same read-out and setting: as for `Cc1cccc(CN2CCc3c(ncnc3NC(=O)CC34CC5CC(CC(C5)C3)C4)C2)n1` [Compound 118], the entry is “+ (compound exhibited 0-25% inhibition at 0.3 μM)”. Take `O=C(CC12CC3CC(CC(C3)C1)C2)Nc1ncnc2c1CCN(C(=O)Cc1ccccc1Br)C2` [Compound 302]: the IL-1β % inhibition result is recorded as “+++ (compound exhibited 50-75% inhibition at 0.3 μM)”. On the same count and under the same terms, the same measure for `COc1cc(OCc2ccccc2)ccc1CN1CCc2c(ncnc2NC(=O)CC23CC4CC(CC(C4)C2)C3)C1` [Compound 330]: “+++ (compound exhibited 50-75% inhibition at 0.3 μM)”; for `Cc1ccc(S(=O)(=O)N2CCc3c(ncnc3NC(=O)CC34CC5CC(CC(C5)C3)C4)C2)cc1Cl` [Compound 207]: “+++ (compound exhibited 50-75% inhibition at 0.3 μM)”; for `CC(C)(C(=O)Nc1ncnc2c1CCN(C(=O)c1cccc(Cl)c1Cl)C2)C12CC3CC(CC(C3)C1)C2` [Compound 364]: “+ (compound exhibited 0-25% inhibition at 0.3 μM)”. Same read-out and setting: the same measure for `CCc1ccc(C(=O)N2CCc3c(ncnc3NC(=O)C34CC5CC(CC(C5)C3)C4)C2)cc1` [Compound 402]: “+ (compound exhibited 0-25% inhibition at 0.3 μM)”; for `CC(C)(C(=O)Nc1ncnc2c1CCN(Cc1ccc(F)cc1)C2)C12CC3CC(CC(C3)C1)C2` [Compound 352]: “+ (compound exhibited 0-25% inhibition at 0.3 μM)”; for `O=C(CC1CCCCC1)Nc1ncnc2c1CCN(CCO)C2` [Compound 22]: “+ (compound exhibited 0-25% inhibition at 0.3 μM)”. As to `O=C(CC12CC3CC(CC(C3)C1)C2)Nc1ncnc2c1CCN(C(=O)c1ccc(C(F)(F)F)cc1F)C2` [Compound 266], the IL-1β % inhibition entry was “+ (compound exhibited 0-25% inhibition at 0.3 μM)”. On the same count and under the same terms, as for `O=C(CC12CC3CC(CC(C3)C1)C2)Nc1ncnc2c1CCN(S(=O)(=O)c1ccc(Cl)c(Cl)c1)C2` [Compound 155], the entry is “+ (compound exhibited 0-25% inhibition at 0.3 μM)”; as for `O=C(CC12CC3CC(CC(C3)C1)C2)Nc1ncnc2c1CCN(S(=O)(=O)Cc1ccc(F)cc1)C2` [Compound 184], “++++ (compound exhibited 75% or greater inhibition at 0.3 μM)”. Consider `CC(=O)Nc1ccc(CN2CCc3c(ncnc3NC(=O)CC34CC5CC(CC(C5)C3)C4)C2)cc1` [Compound 62], for which the IL-1β % inhibition result is “+++ (compound exhibited 50-75% inhibition at 0.3 μM)”. Still for that read-out and setting: as for `Cc1ccc(C2(CNC(=O)c3ncnc4c3CCN(Cc3ccccc3)C4)CCCCC2)cc1` [Compound 60], the entry is “+ (compound exhibited 0-25% inhibition at 0.3 μM)”.

Staying with this assay, now noted: at 0.3 μM; THP-1 cells, BzATP-stimulated.
Regarding `O=C(Nc1ncnc2c1CCN(S(=O)(=O)Cc1ccc(Cl)cc1)C2)C12CC3CC(CC(C3)C1)C2` [Compound 522], the IL-1β % inhibition result was “+++ (compound exhibited 50-75% inhibition at 0.3 μM)”. Same read-out and setting: the same measure for `O=C(Nc1ncnc2c1CCN(S(=O)(=O)c1ccccc1OC(F)(F)F)C2)C12CC3CC(CC(C3)C1)C2` [Compound 532]: “+ (compound exhibited 0-25% inhibition at 0.3 μM)”; for `Cc1ccc(S(=O)(=O)N2CCc3c(ncnc3NC(=O)C34CC5CC(CC(C5)C3)C4)C2)cc1Cl` [Compound 541]: “++++ (compound exhibited 75% or greater inhibition at 0.3 μM)”. The same measure, in the same setting: the same measure for `O=C(Nc1ncnc2c1CCN(S(=O)(=O)c1ccc(Cl)cc1F)C2)C12CC3CC(CC(C3)C1)C2` [Compound 536]: “++ (compound exhibited 25-50% inhibition at 0.3 μM)”; for `Cc1nn(C)c(Cl)c1S(=O)(=O)N1CCc2c(ncnc2NC(=O)C23CC4CC(CC(C4)C2)C3)C1` [Compound 495]: “++ (compound exhibited 25-50% inhibition at 0.3 μM)”. As for `N#Cc1ccc(S(=O)(=O)N2CCc3c(ncnc3NC(=O)C34CC5CC(CC(C5)C3)C4)C2)c(Cl)c1` [Compound 500], the IL-1β % inhibition entry is given as “+++ (compound exhibited 50-75% inhibition at 0.3 μM)”.

Take `O=C(Nc1ncnc2c1CCN(S(=O)(=O)Cc1ccc(C(F)(F)F)cc1)C2)C12CC3CC(CC(C3)C1)C2` [Compound 516]: the IL-1β % inhibition entry is given as “++ (compound exhibited 25-50% inhibition at 0.3 μM)”. Consider `O=C(Nc1ncnc2c1CCN(Cc1ccc(F)cc1)C2)C12CC3CC(CC(C3)C1)C2` [Compound 607], for which the IL-1β % inhibition entry is given as “++++ (compound exhibited 75% or greater inhibition at 0.3 μM)”. In the case of `O=C(Nc1ncnc2c1CCN(S(=O)(=O)c1ccc3oc(=O)ccc3c1)C2)C12CC3CC(CC(C3)C1)C2` [Compound 505], the IL-1β % inhibition result is given as “+ (compound exhibited 0-25% inhibition at 0.3 μM)”. Same read-out and setting: as for `Cc1ccc(F)cc1S(=O)(=O)N1CCc2c(ncnc2NC(=O)C23CC4CC(CC(C4)C2)C3)C1` [Compound 546], the entry is “+ (compound exhibited 0-25% inhibition at 0.3 μM)”; as for `O=C(Nc1ncnc2c1CCN(Cc1cccc(Cl)c1)C2)C12CC3CC(CC(C3)C1)C2` [Compound 598], “+ (compound exhibited 0-25% inhibition at 0.3 μM)”; as for `O=C(Nc1ncnc2c1CCN(Cc1cccnc1)C2)C12CC3CC(CC(C3)C1)C2` [Compound 560], “++ (compound exhibited 25-50% inhibition at 0.3 μM)”. Turning to `O=C(Nc1ncnc2c1CCN(Cc1ccc(Br)nc1)C2)C12CC3CC(CC(C3)C1)C2` [Compound 613], the IL-1β % inhibition entry is “+ (compound exhibited 0-25% inhibition at 0.3 μM)”. For the molecule `COc1cccc(C(=O)N2CCc3c(ncnc3NC(=O)C34CC5CC(CC(C5)C3)C4)C2)c1` [Compound 422], the IL-1β % inhibition result is given as “++ (compound exhibited 25-50% inhibition at 0.3 μM)”. Still for that read-out and setting: as for `COc1ccc(OC)c(CN2CCc3c(ncnc3NC(=O)C34CC5CC(CC(C5)C3)C4)C2)c1` [Compound 631], the entry is “+ (compound exhibited 0-25% inhibition at 0.3 μM)”; as for `CC(CN1CCc2c(ncnc2NC(=O)C23CC4CC(CC(C4)C2)C3)C1)c1ccccc1` (stereo not shown) [Compound 554], “++++ (compound exhibited 75% or greater inhibition at 0.3 μM)”.

As to `O=C(Nc1ncnc2c1CCN(S(=O)(=O)c1cc(Cl)ccc1F)C2)C12CC3CC(CC(C3)C1)C2` [Compound 539], the IL-1β % inhibition entry was “++ (compound exhibited 25-50% inhibition at 0.3 μM)”. Turning to `O=C(c1cc(F)cc(C(F)(F)F)c1)N1CCc2c(ncnc2NC(=O)C23CC4CC(CC(C4)C2)C3)C1` [Compound 439], the IL-1β % inhibition entry was “++ (compound exhibited 25-50% inhibition at 0.3 μM)”.
